Reference: patent US9598426B2, “Organic compounds” (INTRA-CELLULAR THERAPIES, INC., priority 2013, dated 2017)

What was measured:
C57BL/6 mice = experiment: Haloperidol induced catalepsy model (bar grip test, step down latency); type: in vivo, mouse; settings: haloperidol 3 mg/Kg PO, male C57BL/6 mice, compound PO
Excerpt: Haloperidol Induced Catalepsy Model
To evaluate the potential beneficial effects to motor defects present in schizophrenics treated with typical and atypical antipsychotic agents and in Parkinson's disease patients, the compounds of the invention may be tested in a reversal of catalepsy model in which motor freezing, or catalepsy, is induced by potent dopamine D2 receptor antagonists such as haloperidol or risperidone. The method uses the “bar grip test”, in which the front paws of the mouse are placed so as to grip a 3 mm-diameter, suspended wooden bar. A “step down latency” is measured by recording the time until the mouse removes its paws from the wooden bar to the floor surface. Catalepsy is a freezing of the musculature that prevents the mouse from moving off the bar. […]
A catalepsy score is recorded for each mouse at 2, 3, 4, and 6 hours after administration of drugs. […] The latency until the mouse steps both paws down from the bar to the floor surface (i.e., step down latency) is recorded up to 120 sec. […] If none of the 10 attempts are beyond 10 sec, the longest duration recorded is used as the catalepsy score. Otherwise, the initial cataleptic duration (>10 sec) is recorded during the 120 sec testing time. Mean step down latency is calculated for each treatment group.

rats = experiment: Novel Object Recognition (NOR) assay; type: in vivo; settings: PO, administered to a rat 2 hours before T1 (acquisition); 24 h interval
Excerpt: Novel Object Recognition Assay
To measure the cognition-enhancing effects of the compounds of the invention, the candidate compounds may be evaluated in a Novel Object Recognition (NOR) assay. This assay protocol is described in detail in Ennaceur et al., Behav. Brain Res. (1988) 31:47-59 and Prickaerts et al., Eur. J. Pharmacol. (1997) 337:125-136, the contents of each of which are incorporated by reference in their entirety. In this protocol, the rats are introduced to a chamber at time T1 and allowed to interrogate two identical “familiar objects” for six minutes. Twenty-four hours later, they are re-introduced to this chamber, where one of the familiar objects has been replaced with a novel object. The “discrimination index”, a measure of the time spent in close proximity to the novel over the familiar object, may then be measured. Since rodents will forget the original experiment at T1 within 4 hours, this test with a 24 h interval is a measure of strong cognitive enhancement.
This assay protocol can be modified in order to evaluate different phases of memory. There are three general phases of memory, namely, acquisition, consolidation and retrieval. In this modified protocol, the rats may be dosed with the candidate compound two hours before T1 and tested 24 h later without additional dosing. This is a test of the acquisition process. […]

Question: Which minimal effective dose (C57BL/6 mice) does the source give for CC(=O)c1ccc(Cn2nc3c(c2Nc2ccc(F)cc2)C(=O)N(C)C2=NC(C)(C)CN23)cc1 [Example 1, 7,8-Dihydro-2-(4-acetylbenzyl)-3-(4-fluorophenylamino)-5,7,7-trimethyl-[2H]-imidazo-[1,2-a]pyrazolo[4,3-e]pyrimidin-4(5H)-one] here?
Answer: The minimal effective dose was 0.1 mg/kg.

Question: What about the minimal effective dose (rats) of the same molecule?
Answer: The minimal effective dose was 0.1 mg/kg.
